Converted amounts (≈) assume the structure as drawn.
system: Acinetobacter baumannii; assay: Antibacterial activity MIC assay (two-fold dilution agar plating); format: cell-based; conditions: Acinetobacter baumannii, ATCC19606, Acinetobacter baumannii ATCC 19606; read-out: Minimal Inhibitory Concentration (MIC)
Procedure: (§1) Antibacterial Activity-Evaluating Method (MIC Assay)
(§2) In this study, the compounds of the present invention were tested for their antibacterial activities by using two-fold dilution agar plating method and Denley Multipoint Inoculator A400 according to the guidelines of the CLSI/NCCLS standard. The tested strains were amplified by hydrolyzed casein peptone (Mueller-Hinton Agar) broth and Brain and Heart Infusion. The strains used in this study were bacterial strains that were purchased from ATCC or clinically isolated in Chinese hospitals. Aztreonam, polymyxin or levofloxacin was used as positive control. The drugs were diluted with hydrolyzed casein peptone broth to the desired concentrations including 128.0, 64.0, 32.0, 16.0, 8.0, 4.0, 2.0, 1.0, 0.5, 0.25, 0.125, 0.06 and 0.03 μg/mL, and then placed respectively into each well and mixed thoroughly. After inoculation, the tested strains were incubated for 18 hours at a constant temperature of 35° C., and their growth levels were observed. The drug concentration with no microbial growth in the well was recorded as the lowest Minimal Inhibitory Concentration (MIC).

Compound	MIC
CC(C)[C@@H](O/N=C(\C(=O)N[C@@H]1C(=O)N(OS(=O)(=O)O)C1(C)C)c1csc(N)n1)C(=O)O [Compound A-5]	> 64 µg/mL

same assay, conditions: Acinetobacter baumannii, Acinetobacter baumannii 16-16; read-out: Minimal Inhibitory Concentration (MIC)

Compound	MIC
CC(C)[C@@H](O/N=C(\C(=O)N[C@@H]1C(=O)N(OS(=O)(=O)O)C1(C)C)c1csc(N)n1)C(=O)O [Compound A-5]	> 64 µg/mL

same assay, conditions: Acinetobacter baumannii, Acinetobacter baumannii 16-33; read-out: Minimal Inhibitory Concentration (MIC)

Compound	MIC
CC(C)[C@@H](O/N=C(\C(=O)N[C@@H]1C(=O)N(OS(=O)(=O)O)C1(C)C)c1csc(N)n1)C(=O)O [Compound A-5]	> 64 µg/mL

system: Citrobacter freundii; assay: as above; format: cell-based; conditions: ATCC43864; Citrobacter freundii ATCC 43864; read-out: Minimal Inhibitory Concentration (MIC)
Procedure: as §1, §2

Compound	MIC
CC(C)[C@@H](O/N=C(\C(=O)N[C@@H]1C(=O)N(OS(=O)(=O)O)C1(C)C)c1csc(N)n1)C(=O)O [Compound A-5]	16 µg/mL (≈ 33.4 µM)

system: Enterobacter aerogenes; assay: as above; format: cell-based; conditions: Klebsiella aerogenes, ATCC13048; Enterobacter aerogenes ATCC 13048; read-out: Minimal Inhibitory Concentration (MIC)
Procedure: as §1, §2

Compound	MIC
CC(C)[C@@H](O/N=C(\C(=O)N[C@@H]1C(=O)N(OS(=O)(=O)O)C1(C)C)c1csc(N)n1)C(=O)O [Compound A-5]	32 µg/mL (≈ 66.7 µM)

system: Enterobacter cloacae; assay: as above; format: cell-based; conditions: ATCC43560; Enterobacter cloacae ATCC 43560; read-out: Minimal Inhibitory Concentration (MIC)
Procedure: as §1, §2

Compound	MIC
CC(C)[C@@H](O/N=C(\C(=O)N[C@@H]1C(=O)N(OS(=O)(=O)O)C1(C)C)c1csc(N)n1)C(=O)O [Compound A-5]	16 µg/mL (≈ 33.4 µM)

same assay, conditions: Enterobacter cloacae CDC1000654; read-out: Minimal Inhibitory Concentration (MIC)

Compound	MIC
CC(C)[C@@H](O/N=C(\C(=O)N[C@@H]1C(=O)N(OS(=O)(=O)O)C1(C)C)c1csc(N)n1)C(=O)O [Compound A-5]	> 64 µg/mL

system: Escherichia coli; assay: as above; format: cell-based; conditions: Escherichia coli, ATCC25922, Escherichia coli ATCC 25922, ESBLs(−); read-out: Minimal Inhibitory Concentration (MIC)
Procedure: as §1, §2

Compound	MIC
CC(C)[C@@H](O/N=C(\C(=O)N[C@@H]1C(=O)N(OS(=O)(=O)O)C1(C)C)c1csc(N)n1)C(=O)O [Compound A-5]	16 µg/mL (≈ 33.4 µM)

same assay, conditions: Escherichia coli, ATCC35218, Escherichia coli ATCC 35218, ESBLs(+); read-out: Minimal Inhibitory Concentration (MIC)

Compound	MIC
CC(C)[C@@H](O/N=C(\C(=O)N[C@@H]1C(=O)N(OS(=O)(=O)O)C1(C)C)c1csc(N)n1)C(=O)O [Compound A-5]	16 µg/mL (≈ 33.4 µM)

same assay, conditions: Escherichia coli, Escherichia coli 08-85, mcr-1(+); read-out: Minimal Inhibitory Concentration (MIC)

Compound	MIC
CC(C)[C@@H](O/N=C(\C(=O)N[C@@H]1C(=O)N(OS(=O)(=O)O)C1(C)C)c1csc(N)n1)C(=O)O [Compound A-5]	32 µg/mL (≈ 66.7 µM)

same assay, conditions: Escherichia coli, Escherichia coli 13-43, mcr-1(+); read-out: Minimal Inhibitory Concentration (MIC)

Compound	MIC
CC(C)[C@@H](O/N=C(\C(=O)N[C@@H]1C(=O)N(OS(=O)(=O)O)C1(C)C)c1csc(N)n1)C(=O)O [Compound A-5]	32 µg/mL (≈ 66.7 µM)

same assay, conditions: Escherichia coli, Escherichia coli 13-66, mcr-1(+); read-out: Minimal Inhibitory Concentration (MIC)

Compound	MIC
CC(C)[C@@H](O/N=C(\C(=O)N[C@@H]1C(=O)N(OS(=O)(=O)O)C1(C)C)c1csc(N)n1)C(=O)O [Compound A-5]	16 µg/mL (≈ 33.4 µM)

same assay, conditions: Escherichia coli, Escherichia coli 16-1, ESBLs(+); read-out: Minimal Inhibitory Concentration (MIC)

Compound	MIC
CC(C)[C@@H](O/N=C(\C(=O)N[C@@H]1C(=O)N(OS(=O)(=O)O)C1(C)C)c1csc(N)n1)C(=O)O [Compound A-5]	8 µg/mL (≈ 16.7 µM)

same assay, conditions: Escherichia coli, Escherichia coli 16-7, ESBLs(−); read-out: Minimal Inhibitory Concentration (MIC)

Compound	MIC
CC(C)[C@@H](O/N=C(\C(=O)N[C@@H]1C(=O)N(OS(=O)(=O)O)C1(C)C)c1csc(N)n1)C(=O)O [Compound A-5]	32 µg/mL (≈ 66.7 µM)

same assay, conditions: Escherichia coli, Escherichia coli 17-R28, CRE, NDM-1(+); read-out: Minimal Inhibitory Concentration (MIC)

Compound	MIC
CC(C)[C@@H](O/N=C(\C(=O)N[C@@H]1C(=O)N(OS(=O)(=O)O)C1(C)C)c1csc(N)n1)C(=O)O [Compound A-5]	> 64 µg/mL

same assay, conditions: Escherichia coli, Escherichia coli CDC1001728, NDM-1(+); read-out: Minimal Inhibitory Concentration (MIC)

Compound	MIC
CC(C)[C@@H](O/N=C(\C(=O)N[C@@H]1C(=O)N(OS(=O)(=O)O)C1(C)C)c1csc(N)n1)C(=O)O [Compound A-5]	32 µg/mL (≈ 66.7 µM)

system: Klebsiella Pneumoniae; assay: as above; format: cell-based; conditions: Klebsiella pneumoniae, ATCC700603, Klebsiella Pneumoniae ATCC 700603, ESBLs(+); read-out: Minimal Inhibitory Concentration (MIC)
Procedure: as §1, §2

Compound	MIC
CC(C)[C@@H](O/N=C(\C(=O)N[C@@H]1C(=O)N(OS(=O)(=O)O)C1(C)C)c1csc(N)n1)C(=O)O [Compound A-5]	64 µg/mL (≈ 133 µM)

same assay, conditions: Klebsiella pneumoniae, ATCCBAA2146, Klebsiella Pneumoniae ATCC BAA-2146, NDM-1(+); read-out: Minimal Inhibitory Concentration (MIC)

Compound	MIC
CC(C)[C@@H](O/N=C(\C(=O)N[C@@H]1C(=O)N(OS(=O)(=O)O)C1(C)C)c1csc(N)n1)C(=O)O [Compound A-5]	> 64 µg/mL

same assay, conditions: Klebsiella pneumoniae, Klebsiella Pneumoniae 09-20, mcr-1(+); read-out: Minimal Inhibitory Concentration (MIC)

Compound	MIC
CC(C)[C@@H](O/N=C(\C(=O)N[C@@H]1C(=O)N(OS(=O)(=O)O)C1(C)C)c1csc(N)n1)C(=O)O [Compound A-5]	16 µg/mL (≈ 33.4 µM)

same assay, conditions: Klebsiella pneumoniae, Klebsiella Pneumoniae 16-2, ESBLs(−); read-out: Minimal Inhibitory Concentration (MIC)

Compound	MIC
CC(C)[C@@H](O/N=C(\C(=O)N[C@@H]1C(=O)N(OS(=O)(=O)O)C1(C)C)c1csc(N)n1)C(=O)O [Compound A-5]	32 µg/mL (≈ 66.7 µM)

same assay, conditions: Klebsiella pneumoniae, Klebsiella Pneumoniae 16-14, ESBLs(+); read-out: Minimal Inhibitory Concentration (MIC)

Compound	MIC
CC(C)[C@@H](O/N=C(\C(=O)N[C@@H]1C(=O)N(OS(=O)(=O)O)C1(C)C)c1csc(N)n1)C(=O)O [Compound A-5]	16 µg/mL (≈ 33.4 µM)

same assay, conditions: Klebsiella pneumoniae, Klebsiella Pneumoniae 17-R27, CRE; read-out: Minimal Inhibitory Concentration (MIC)

Compound	MIC
CC(C)[C@@H](O/N=C(\C(=O)N[C@@H]1C(=O)N(OS(=O)(=O)O)C1(C)C)c1csc(N)n1)C(=O)O [Compound A-5]	32 µg/mL (≈ 66.7 µM)

system: Proteus mirabilis; assay: as above; format: cell-based; conditions: Proteus mirabilis, ATCC49565, Proteus mirabilis ATCC 49565; read-out: Minimal Inhibitory Concentration (MIC)
Procedure: as §1, §2

Compound	MIC
CC(C)[C@@H](O/N=C(\C(=O)N[C@@H]1C(=O)N(OS(=O)(=O)O)C1(C)C)c1csc(N)n1)C(=O)O [Compound A-5]	1 µg/mL (≈ 2.09 µM)

system: Proteus vulgaris; assay: as above; format: cell-based; conditions: Proteus vulgaris, ATCC29905, Proteus vulgaris ATCC 29905; read-out: Minimal Inhibitory Concentration (MIC)
Procedure: as §1, §2

Compound	MIC
CC(C)[C@@H](O/N=C(\C(=O)N[C@@H]1C(=O)N(OS(=O)(=O)O)C1(C)C)c1csc(N)n1)C(=O)O [Compound A-5]	4 µg/mL (≈ 8.34 µM)

system: Providencia rettgeri; assay: as above; format: cell-based; conditions: Providencia rettgeri, ATCC31052, Providencia rettgeri ATCC 31052; read-out: Minimal Inhibitory Concentration (MIC)
Procedure: as §1, §2

Compound	MIC
CC(C)[C@@H](O/N=C(\C(=O)N[C@@H]1C(=O)N(OS(=O)(=O)O)C1(C)C)c1csc(N)n1)C(=O)O [Compound A-5]	4 µg/mL (≈ 8.34 µM)

system: Pseudomonas aeruginosa; assay: as above; format: cell-based; conditions: ATCC27853; Pseudomonas aeruginosa ATCC 27853; read-out: Minimal Inhibitory Concentration (MIC)
Procedure: as §1, §2

Compound	MIC
CC(C)[C@@H](O/N=C(\C(=O)N[C@@H]1C(=O)N(OS(=O)(=O)O)C1(C)C)c1csc(N)n1)C(=O)O [Compound A-5]	> 64 µg/mL

same assay, conditions: Pseudomonas aeruginosa 16-11; read-out: Minimal Inhibitory Concentration (MIC)

Compound	MIC
CC(C)[C@@H](O/N=C(\C(=O)N[C@@H]1C(=O)N(OS(=O)(=O)O)C1(C)C)c1csc(N)n1)C(=O)O [Compound A-5]	> 64 µg/mL

same assay, conditions: Pseudomonas aeruginosa PAO1; read-out: Minimal Inhibitory Concentration (MIC)

Compound	MIC
CC(C)[C@@H](O/N=C(\C(=O)N[C@@H]1C(=O)N(OS(=O)(=O)O)C1(C)C)c1csc(N)n1)C(=O)O [Compound A-5]	> 64 µg/mL

system: Salmonella typhi; assay: as above; format: cell-based; conditions: Salmonella enterica, TYPHI, read-out: Minimal Inhibitory Concentration (MIC)
Procedure: as §1, §2

Compound	MIC
CC(C)[C@@H](O/N=C(\C(=O)N[C@@H]1C(=O)N(OS(=O)(=O)O)C1(C)C)c1csc(N)n1)C(=O)O [Compound A-5]	32 µg/mL (≈ 66.7 µM)

system: Serratia marcescens; assay: as above; format: cell-based; conditions: ATCC21074; Serratia marcescens ATCC 21074; read-out: Minimal Inhibitory Concentration (MIC)
Procedure: as §1, §2

Compound	MIC
CC(C)[C@@H](O/N=C(\C(=O)N[C@@H]1C(=O)N(OS(=O)(=O)O)C1(C)C)c1csc(N)n1)C(=O)O [Compound A-5]	32 µg/mL (≈ 66.7 µM)

system: Shigella flexneri; assay: as above; format: cell-based; conditions: ATCC12022; Shigella flexneri ATCC 12022; read-out: Minimal Inhibitory Concentration (MIC)
Procedure: as §1, §2

Compound	MIC
CC(C)[C@@H](O/N=C(\C(=O)N[C@@H]1C(=O)N(OS(=O)(=O)O)C1(C)C)c1csc(N)n1)C(=O)O [Compound A-5]	64 µg/mL (≈ 133 µM)

system: Stenotrophomonas maltophilia; assay: as above; format: cell-based; conditions: ATCC13636; Stenotrophomonas maltophilia ATCC 13636; read-out: Minimal Inhibitory Concentration (MIC)
Procedure: as §1, §2

Compound	MIC
CC(C)[C@@H](O/N=C(\C(=O)N[C@@H]1C(=O)N(OS(=O)(=O)O)C1(C)C)c1csc(N)n1)C(=O)O [Compound A-5]	> 64 µg/mL

— patent publication US12497393B2, “β-lactam compound, use thereof and preparation method therefor” (priority 2020, dated 2025)
